The supplement of paper PMC10307832

Key:
Assay in all cases: relative viability (nuclei count vs DMSO), 5 days (fraction); higher = more cells survive
Pazopanib + Phenformin = compound: Cc1ccc(Nc2nccc(N(C)c3ccc4c(C)n(C)nc4c3)n2)cc1S(N)(=O)=O [Pazopanib] + N=C(N)NC(=N)NCCc1ccccc1 [Phenformin] (partner 250 µM)
Outline: (§1)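 Each reported value is a median over duplicate plates. It expresses relative viability: treated-well nuclei count divided by vehicle-well nuclei count. Lung cancer cell lines in 1536-well plates were dosed by pin tool a day after seeding, alone with one drug or with a fixed anchor-drug dose plus five library-drug doses (not always all listed) in √10 steps, and nuclei were counted after 5 days.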

Ponatinib + Pictilisib = compound: Cc1ccc(C(=O)Nc2ccc(CN3CCN(C)CC3)c(C(F)(F)F)c2)cc1C#Cc1cnc2cccnn12 [Ponatinib] + CS(=O)(=O)N1CCN(Cc2cc3nc(-c4cccc5[nH]ncc45)nc(N4CCOCC4)c3s2)CC1 [Pictilisib] (partner 1 µM)
Outline: as §1

Ponatinib + Trametinib = compound: Cc1ccc(C(=O)Nc2ccc(CN3CCN(C)CC3)c(C(F)(F)F)c2)cc1C#Cc1cnc2cccnn12 [Ponatinib] + CC(=O)Nc1cccc(-n2c(=O)n(C3CC3)c(=O)c3c(Nc4ccc(I)cc4F)n(C)c(=O)c(C)c32)c1 [Trametinib] (partner 0.02 µM)
Outline: as §1

Ponatinib + AZD7762 = compound: Cc1ccc(C(=O)Nc2ccc(CN3CCN(C)CC3)c(C(F)(F)F)c2)cc1C#Cc1cnc2cccnn12 [Ponatinib] + NC(=O)Nc1cc(-c2cccc(F)c2)sc1C(=O)N[C@H]1CCCNC1 [AZD7762] (partner 0.2 µM)
Outline: as §1

Cell Line: NCI-H358
- relative viability (Pazopanib + Phenformin; first compound 0.01 µM): 0.388
- relative viability (Pazopanib + Phenformin; first compound 0.03162 µM): 0.384
- relative viability (Pazopanib + Phenformin; first compound 0.1 µM): 0.37
- relative viability (Pazopanib + Phenformin; first compound 1 µM): 0.548
- relative viability (Ponatinib + Pictilisib; first compound 0.002 µM): 0.318
- relative viability (Ponatinib + Pictilisib; first compound 0.006325 µM): 0.429
- relative viability (Ponatinib + Pictilisib; first compound 0.06325 µM): 0.369
- relative viability (Ponatinib + Pictilisib; first compound 0.2 µM): 0.331
- relative viability (Ponatinib + Trametinib; first compound 0.002 µM): 0.162
- relative viability (Ponatinib + Trametinib; first compound 0.006325 µM): 0.147
- relative viability (Ponatinib + Trametinib; first compound 0.06325 µM): 0.12
- relative viability (Ponatinib + Trametinib; first compound 0.2 µM): 0.103
- relative viability (Ponatinib + AZD7762; first compound 0.002 µM): 0.45
- relative viability (Ponatinib + AZD7762; first compound 0.006325 µM): 0.567
- relative viability (Ponatinib + AZD7762; first compound 0.06325 µM): 0.509
- relative viability (Ponatinib + AZD7762; first compound 0.2 µM): 0.46

Cell Line: NCI-H727
- relative viability (Pazopanib + Phenformin; first compound 0.01 µM): 0.455
- relative viability (Pazopanib + Phenformin; first compound 0.03162 µM): 0.522
- relative viability (Pazopanib + Phenformin; first compound 0.1 µM): 0.57
- relative viability (Pazopanib + Phenformin; first compound 0.3162 µM): 0.584
- relative viability (Pazopanib + Phenformin; first compound 1 µM): 0.682
- relative viability (Ponatinib + Pictilisib; first compound 0.002 µM): 0.367
- relative viability (Ponatinib + Pictilisib; first compound 0.006325 µM): 0.514
- relative viability (Ponatinib + Pictilisib; first compound 0.06325 µM): 0.356
- relative viability (Ponatinib + Pictilisib; first compound 0.2 µM): 0.333
- relative viability (Ponatinib + Trametinib; first compound 0.002 µM): 0.415
- relative viability (Ponatinib + Trametinib; first compound 0.006325 µM): 0.388
- relative viability (Ponatinib + Trametinib; first compound 0.06325 µM): 0.398
- relative viability (Ponatinib + Trametinib; first compound 0.2 µM): 0.37
- relative viability (Ponatinib + AZD7762; first compound 0.002 µM): 0.508
- relative viability (Ponatinib + AZD7762; first compound 0.006325 µM): 0.575
- relative viability (Ponatinib + AZD7762; first compound 0.06325 µM): 0.567
- relative viability (Ponatinib + AZD7762; first compound 0.2 µM): 0.576

Cell Line: HCC-15
- relative viability (Pazopanib + Phenformin; first compound 0.01 µM): 0.476
- relative viability (Pazopanib + Phenformin; first compound 0.03162 µM): 0.507
- relative viability (Pazopanib + Phenformin; first compound 0.1 µM): 0.498
- relative viability (Pazopanib + Phenformin; first compound 0.3162 µM): 0.519
- relative viability (Pazopanib + Phenformin; first compound 1 µM): 0.505
- relative viability (Ponatinib + Pictilisib; first compound 0.002 µM): 0.644
- relative viability (Ponatinib + Pictilisib; first compound 0.006325 µM): 0.758
- relative viability (Ponatinib + Pictilisib; first compound 0.06325 µM): 0.823
- relative viability (Ponatinib + Pictilisib; first compound 0.2 µM): 0.701
- relative viability (Ponatinib + Trametinib; first compound 0.002 µM): 0.348
- relative viability (Ponatinib + Trametinib; first compound 0.006325 µM): 0.381
- relative viability (Ponatinib + Trametinib; first compound 0.06325 µM): 0.446
- relative viability (Ponatinib + Trametinib; first compound 0.2 µM): 0.338
- relative viability (Ponatinib + AZD7762; first compound 0.002 µM): 1.18
- relative viability (Ponatinib + AZD7762; first compound 0.006325 µM): 1.19
- relative viability (Ponatinib + AZD7762; first compound 0.06325 µM): 1.32
- relative viability (Ponatinib + AZD7762; first compound 0.2 µM): 1.31

Cell Line: LCLC-103H
- relative viability (Pazopanib + Phenformin; first compound 0.01 µM): 0.247
- relative viability (Pazopanib + Phenformin; first compound 0.03162 µM): 0.338
- relative viability (Pazopanib + Phenformin; first compound 0.1 µM): 0.344
- relative viability (Pazopanib + Phenformin; first compound 0.3162 µM): 0.344
- relative viability (Pazopanib + Phenformin; first compound 1 µM): 0.342
- relative viability (Ponatinib + Pictilisib; first compound 0.002 µM): 0.543
- relative viability (Ponatinib + Pictilisib; first compound 0.006325 µM): 0.592
- relative viability (Ponatinib + Pictilisib; first compound 0.06325 µM): 0.636
- relative viability (Ponatinib + Pictilisib; first compound 0.2 µM): 0.572
- relative viability (Ponatinib + Trametinib; first compound 0.002 µM): 0.678
- relative viability (Ponatinib + Trametinib; first compound 0.006325 µM): 0.718
- relative viability (Ponatinib + Trametinib; first compound 0.06325 µM): 0.673
- relative viability (Ponatinib + Trametinib; first compound 0.2 µM): 0.579
- relative viability (Ponatinib + AZD7762; first compound 0.002 µM): 0.699
- relative viability (Ponatinib + AZD7762; first compound 0.006325 µM): 0.809
- relative viability (Ponatinib + AZD7762; first compound 0.06325 µM): 0.734
- relative viability (Ponatinib + AZD7762; first compound 0.2 µM): 0.753

Cell Line: NCI-H460
- relative viability (Pazopanib + Phenformin; first compound 0.01 µM): 0.578
- relative viability (Pazopanib + Phenformin; first compound 0.03162 µM): 0.546
- relative viability (Pazopanib + Phenformin; first compound 0.1 µM): 0.525
- relative viability (Pazopanib + Phenformin; first compound 0.3162 µM): 0.548
- relative viability (Pazopanib + Phenformin; first compound 1 µM): 0.562
- relative viability (Ponatinib + Pictilisib; first compound 0.002 µM): 0.383
- relative viability (Ponatinib + Pictilisib; first compound 0.006325 µM): 0.441
- relative viability (Ponatinib + Pictilisib; first compound 0.06325 µM): 0.469
- relative viability (Ponatinib + Pictilisib; first compound 0.2 µM): 0.452
- relative viability (Ponatinib + Trametinib; first compound 0.002 µM): 0.192
- relative viability (Ponatinib + Trametinib; first compound 0.006325 µM): 0.128
- relative viability (Ponatinib + Trametinib; first compound 0.06325 µM): 0.268
- relative viability (Ponatinib + Trametinib; first compound 0.2 µM): 0.1
- relative viability (Ponatinib + AZD7762; first compound 0.002 µM): 0.478
- relative viability (Ponatinib + AZD7762; first compound 0.006325 µM): 0.552
- relative viability (Ponatinib + AZD7762; first compound 0.06325 µM): 0.564
- relative viability (Ponatinib + AZD7762; first compound 0.2 µM): 0.576

Cell Line: EPLC-272H
- relative viability (Pazopanib + Phenformin; first compound 0.03162 µM): 0.311
- relative viability (Pazopanib + Phenformin; first compound 0.1 µM): 0.308
- relative viability (Pazopanib + Phenformin; first compound 0.3162 µM): 0.347
- relative viability (Pazopanib + Phenformin; first compound 1 µM): 0.392
- relative viability (Ponatinib + Pictilisib; first compound 0.002 µM): 0.29
- relative viability (Ponatinib + Pictilisib; first compound 0.006325 µM): 0.373
- relative viability (Ponatinib + Pictilisib; first compound 0.06325 µM): 0.342
- relative viability (Ponatinib + Pictilisib; first compound 0.2 µM): 0.335
- relative viability (Ponatinib + Trametinib; first compound 0.002 µM): 0.271
- relative viability (Ponatinib + Trametinib; first compound 0.006325 µM): 0.309
- relative viability (Ponatinib + Trametinib; first compound 0.06325 µM): 0.345
- relative viability (Ponatinib + Trametinib; first compound 0.2 µM): 0.22
- relative viability (Ponatinib + AZD7762; first compound 0.002 µM): 0.242
- relative viability (Ponatinib + AZD7762; first compound 0.006325 µM): 0.175
- relative viability (Ponatinib + AZD7762; first compound 0.06325 µM): 0.204
- relative viability (Ponatinib + AZD7762; first compound 0.2 µM): 0.234
